Test results reported in US9370189B2, “Controlling Pseudomonas aeruginosa persister cells with GM-CSF” (priority 2012, dated 2016).

Columns and labels:
[1] = tested on: E. coli K12 biofilm; assay: Effect of GM-CSF on 24-h E. coli K12 biofilm, alone and with antibiotic; assay type: cell-based, Escherichia coli
Experimental: This Example describes the treatment of biofilms made from P. aeruginosa PAO1, PDO300 and Escherichia coli K12, with GM-CSF introduced directly or together with an antibiotic to test the synergy.
In brief, after preparing an overnight culture, it was subcultured to an initial OD600 of 0.01 to a total volume of 20 mL M63 medium (for PAO1 and PDO300) or 20 ml LB medium (for E. coli K12) in a petri dish with 316L stainless steel coupons (1.75 cm×1 cm). The biofilm was grown for 24 h at 37° C. without shaking. After incubation, the coupons were washed by gently dipping in 0.85% NaCl twice using tweezers and were placed in new empty petri dishes.
To test the synergistic effects between GM-CSF (2.43 pg/mL or 0.17 pM) and antibiotics, a total of 8 coupons were analyzed. These 8 coupons were placed in 4 petri dishes (2 coupons in each dish). The two dishes were labeled as control and the other two as treatment samples. In the treatment samples, GM-CSF was added to 20 mL of 0.85% NaCl to a concentration of 2.43 pg/mL (or 0.17 pM). The control samples were supplemented with the same amount of PBS and BSA as present in the samples with 2.43 pg/ml (or 0.17 pM) GM-CSF. The coupons were incubated at 37° C. for 2 h.
After incubation, a control dish and a treatment dish was selected for studying the killing effect of 2.43 pg/ml GM-CSF on biofilm cells. Each coupon after gentle washing with 0.85% NaCl buffer, was placed in a test tube with 3 mL 0.85% NaCl buffer in each. They were sonicated (B200, Sinosonic Industrial Co., Ltd., Taiwan) for 4 mins to release the biofilm cells in the buffer. After vortexing for 1 min, they were plated on LB agar plates using drop plate method. The CFU was counted after incubation at 37° C. for 24 h to count the total number of viable cells. Furthermore, the synergistic effect of antibiotics with GM-CSF was evaluated with additional 3.5 h treatment with antibiotic at 37° C. After incubation, drop plate method was performed and the CFU was counted to understand if there is a synergistic effect.

[2] = tested on: E. coli K12; assay: Effect of GM-CSF on planktonic E. coli K12 cells (total viable cells and persisters) at exponential phase, alone and with antibiotic; assay type: cell-based, Escherichia coli; settings: for % change in avg. CFU/mL by GM-CSF (compared to GM-CSF free control) 20 μg/mL Tet / % change in avg. CFU/mL by GM-CSF (compared to GM-CSF free control) With 2 μg/mL Cip / % change in avg. CFU/mL by GM-CSF (compared to GM-CSF free control) With 70 μg/mL Tob / % change in avg. CFU/mL by GM-CSF (compared to GM-CSF free control) With 200 μg/mL Gen: E. coli K12 exponential phase, 0.17 pM GM-CSF; for % change in avg. CFU/ml after adding factor + CIP / % change in avg. CFU/ml after adding factor + TET / % change in avg. CFU/ml after adding factor + TOB / % change in avg. CFU/ml after adding factor + GEN: planktonic E. coli K12; for % change in avg. CFU/ml after adding factor + CIP: 2.43 pg/mL GM-CSF with 2 μg/mL ciprofloxacin; for % change in avg. CFU/ml after adding factor + TET: 2.43 pg/mL GM-CSF with 20 μg/mL tetracycline; for % change in avg. CFU/ml after adding factor + TOB: 2.43 pg/mL GM-CSF with 70 μg/mL tobramycin; for % change in avg. CFU/ml after adding factor + GEN: 2.43 pg/mL GM-CSF with 200 μg/mL gentamicin
Experimental: This Example describes the treatment of planktonic P. aeruginosa PAO1, PDO300 and Escherichia coli K12, with GM-CSF introduced directly or together with an antibiotic to test the synergy. All experiments were conducted with cells harvested from exponential phase subcultures with an optical density at 600 nm (OD600) of 0.3 to 0.4.
In brief, after preparing an overnight culture of the tested strain in 25 ml LB medium, a subculture was prepared with an OD600 of 0.01 in 50 mL LB medium. The subculture was incubated at 37° C. with shaking at 200 rpm for 3-4 h, till an OD600 of 0.3 to 0.4 was reached. The exponential phase subculture was then divided equally into two centrifuge tubes, each containing 25 mL of the subculture. The subcultures were washed twice with 0.85% NaCl buffer by vortexing and then centrifuging at 4° C., 8000 rpm for 10 min each time. The washed subcultures/cells were resuspended in 25 mL 0.85% NaCl buffer and vortexed gently for 1 min. One of the tubes of subculture was selected for isolation of persisters by adding 200 μg/mL ciprofloxacin (for PAO1 and PDO300 strains) or 100 μg/mL ampicillin (for E. coli K12 strain). After adding the antibiotic for persister isolation, the subculture was incubated at 37° C., shaking at 200 rpm for 3.5 h.
To test the effects of GM-CSF on viability of persisters, the second tube was used to quantify the total number of viable cells and 1 mL of the washed persister cells was divided into 6 microcentrifuge tubes; 3 were control and the other 3 were GM-CSF treatment samples. In the treatment samples, GM-CSF was added to a concentration of 2.43 pg/mL (or 0.17 pM), the same as found in healthy human bodies. The control samples were supplemented with the same concentration of PBS and BSA as present in 2.43 pg/mL (or 0.17 pM) GM-CSF samples.
After incubating at 37° C. for 1 h with shaking at 200 rpm, the samples were plated on LB agar plates (15 g/L bacto agar) using drop plate method. The agar plates were then incubated for 24 h at 37° C. to count the total number of persister cells and understand the effect of 0.17 pM GM-CSF on the viability of persister cells.
To test the synergy with antibiotics, the above samples were then incubated at 37° C. for 3.5 h with shaking at 200 rpm after adding the selected antibiotic. After 3.5 h, the CFU of samples was quantified in the same way to understand if there is any synergy between GM-CSF and antibiotic. Similar treatments were performed on the total population in exponential phase as well. Apart from exponential phase, the synergistic effects of GM-CSF with antibiotics on total viable cells and persisters were also evaluated at stationary phase but PBS buffer (pH=7.4) was used in the experiments instead of 0.85% NaCl solution. Moreover, the 1 h and 3.5 h treatments were performed as co-treatments.

[3] = total viable cells, listed as factor

GM-CSF: granulocyte macrophage-colony stimulating factor, a cytokine secreted by macrophages; recombinant human GM-CSF (R&D systems) in binding tests
% change in avg. CFU/ml after adding factor + CIP ([1]; 24-h E. coli K12 biofilm, 2.43 pg/mL GM-CSF with 100 μg/mL ciprofloxacin): +4.8% | % change in avg. CFU/ml after adding factor + TET ([1]; 24-h E. coli K12 biofilm, 2.43 pg/mL GM-CSF with 100 μg/mL tetracycline): +3.6% | % change in avg. CFU/ml after adding factor + TOB ([1]; 24-h E. coli K12 biofilm, 2.43 pg/mL GM-CSF with 100 μg/mL tobramycin): +4.2% | % change in avg. CFU/ml after adding factor + GEN ([1]; 24-h E. coli K12 biofilm, 2.43 pg/mL GM-CSF with 125 μg/mL gentamicin): +8.1% | average CFU/mL of biofilm cells changed by ([1]; E. coli K12 biofilm, 2.43 pg/mL GM-CSF alone, average of 2 experiments): +4.83% | average CFU/ml of biofilm cells changed by ([1]; E. coli K12 biofilm, 2.43 pg/mL GM-CSF in the presence of 100 μg/mL ciprofloxacin): +1.2% | average CFU/ml of biofilm cells changed by ([1]; E. coli K12 biofilm, 2.43 pg/mL GM-CSF in the presence of 100 μg/mL tetracycline): −2.4% | average CFU/ml of biofilm cells changed by ([1]; E. coli K12 biofilm, 2.43 pg/mL GM-CSF in the presence of 100 μg/mL tobramycin): +0.6% | average CFU/ml of biofilm cells changed by ([1]; E. coli K12 biofilm, 2.43 pg/mL GM-CSF in the presence of 125 μg/mL gentamicin): +1.9% | effect on E. coli persister cells ([2]; compared to the pathogenic strain P. aeruginosa): ineffective | % change in avg. CFU/mL by GM-CSF (compared to GM-CSF free control) 20 μg/mL Tet ([2]; persisters): −6.7% | % change in avg. CFU/mL by GM-CSF (compared to GM-CSF free control) With 2 μg/mL Cip ([2]; persisters): −4.8% | % change in avg. CFU/mL by GM-CSF (compared to GM-CSF free control) With 70 μg/mL Tob ([2]; persisters): +1.5% | % change in avg. CFU/mL by GM-CSF (compared to GM-CSF free control) With 200 μg/mL Gen ([2]; persisters): +11.1% | % change in avg. CFU/ml after adding factor + CIP ([2]; persisters): −6.18% | % change in avg. CFU/ml after adding factor + CIP ([2]; persisters, listed as factor): −6.18% | % change in avg. CFU/ml after adding factor + TET ([2]; persisters): +12.00% | % change in avg. CFU/ml after adding factor + TET ([2]; persisters, listed as factor): +12.00% | % change in avg. CFU/ml after adding factor + TOB ([2]; persisters): +11.16% | % change in avg. CFU/ml after adding factor + TOB ([2]; persisters, listed as factor): +11.16% | % change in avg. CFU/ml after adding factor + GEN ([2]; persisters): +18.52% | % change in avg. CFU/ml after adding factor + GEN ([2]; persisters, listed as factor): +18.52% | % change in avg. CFU/mL by GM-CSF (compared to GM-CSF free control) 20 μg/mL Tet ([2]; total viable cells): −19.0% | % change in avg. CFU/mL by GM-CSF (compared to GM-CSF free control) With 2 μg/mL Cip ([2]; total viable cells): +5.9% | % change in avg. CFU/mL by GM-CSF (compared to GM-CSF free control) With 70 μg/mL Tob ([2]; total viable cells): −32.0% | % change in avg. CFU/mL by GM-CSF (compared to GM-CSF free control) With 200 μg/mL Gen ([2]; total viable cells): −31.3% | % change in avg. CFU/ml after adding factor + CIP ([2]; total viable cells): +5.88% | % change in avg. CFU/ml after adding factor + CIP [2, 3]: +5.88% | % change in avg. CFU/ml after adding factor + TET ([2]; total viable cells): −19.05% | % change in avg. CFU/ml after adding factor + TET [2, 3]: −19.05% | % change in avg. CFU/ml after adding factor + TOB ([2]; total viable cells): −32.00% | % change in avg. CFU/ml after adding factor + TOB [2, 3]: −32.00% | % change in avg. CFU/ml after adding factor + GEN ([2]; total viable cells): −31.34% | % change in avg. CFU/ml after adding factor + GEN [2, 3]: −31.34%
